From PMC10349806 (Nature Communications, 2023)
Several values for one entry are separate records, joined by “and”; a condition that tells them apart may be missing. Equal entries are not always repeated.

Experiments:
[1] = target: T1, PfCRT variant D377A (Plasmodium falciparum, UniProt Q9N623, A220S/D377A/I356T/K76T/M74I/N326S/N75E/Q271E/R371I); experiment: CQ uptake assay, oocytes expressing D377A; assay type: cell-based
T1 sequence (Q9N623 1-424 M74I/N75E/K76T/A220S/Q271E/N326S/I356T/R371I/D377A): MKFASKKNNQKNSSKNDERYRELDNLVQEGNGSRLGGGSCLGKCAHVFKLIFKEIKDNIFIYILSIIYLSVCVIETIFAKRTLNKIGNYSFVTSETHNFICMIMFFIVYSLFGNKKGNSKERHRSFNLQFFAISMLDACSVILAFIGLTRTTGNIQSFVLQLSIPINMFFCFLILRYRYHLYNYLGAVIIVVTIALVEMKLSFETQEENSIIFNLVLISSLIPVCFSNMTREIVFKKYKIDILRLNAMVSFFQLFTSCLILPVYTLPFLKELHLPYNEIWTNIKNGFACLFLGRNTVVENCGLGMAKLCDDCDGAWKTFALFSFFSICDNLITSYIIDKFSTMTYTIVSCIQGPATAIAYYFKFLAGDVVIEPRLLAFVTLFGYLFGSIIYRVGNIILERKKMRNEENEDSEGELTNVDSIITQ
Method: (§1) Site-directed mutagenesis of PfCRT^Dd2 was performed as described using the megaprimer method with overlap extension[21],[54]. The primer pairs used are listed in Supplementary Table 6. Please note that a codon-optimized and oocyte-adapted version of PfCRT^Dd2 was used[22] (Supplementary Fig. 16). The resulting DNA fragment was cloned into the SP64T expression vector and verified by sequencing.
(§2) Oocytes were obtained as described previously. Briefly, adult (>2 years old) female X. laevis frogs (NASCO) were anesthetized in a cooled solution of ethyl 3-amino benzoate methanesulfonate (0.1%, w/v), followed by a surgical removal of parts of the ovary. The ovary lobes were carefully dissected and small pieces of oocytes were incubated in Ca^2+-free ND96 buffer (96 mM NaCl, 2 mM KCl, 1 mM MgCl2 buffered with 5 mM HEPES/NaOH, pH 7.5) supplemented with collagenase D (0.1%, w/v; Roche), BSA (0.5%, w/v), and 9 mm Na2HPO4 at 18 °C for 14-16 h while gentle shaking. After incubation, the oocytes were carefully washed several times with ND96 buffer (96 mM NaCl, 2 mM KCl, 1.8 mM CaCl2, 1 mM MgCl2 buffered with 5 mM HEPES/NaOH, pH 7.5) supplemented with 100 mg l^−1 gentamycin). Defolliculated and healthy-looking stage V-VI oocytes were manually selected for RNA microinjection. The RNA was generated as following: The codon-optimized sequences of PfCRT variants were cloned into the pSP64T expression vector. After vector linearization using the restriction endonucleases BamHI or SalI (New England Biolabs), transcription was performed using the in vitro SP6 mMessage mMachine Kit (Ambion)[34]. The obtained RNA was kept at −80 °C and diluted with nuclease-free water to a concentration of 0.6 μg μl^−1. Precision-bore glass capillary tubes (3.5-inch glass capillaries; Drummond Scientific Co.) were pulled on a vertical puller (P-87 Flaming/Brown micropipette puller, Sutter Instrument Co.), graduated, and placed on a microinjector (Nanoject II Auto-Nanoliter Injector, Drummond Scientific Co.). 50 nl of nuclease-free water alone (control oocytes) or 50 nl of 0.6 μg μl^−1 RNA were injected under stereomicroscopic control. Injected oocytes were incubated for 46–72 h at 18 °C with twice-daily buffer changes before usage in experiments.
(§3) Drug uptake assays were performed as described previously[21],[22],[24],[34]. […] The direction of radio-labeled drug transport is here from the mostly acidic extracellular solution (pH 4.5 or 6.0, as indicated) into the oocyte cytosol (pH ∼ 7.2), which corresponds to the efflux of drug from the acidic digestive vacuole (pH 5.2) into the parasite cytoplasm (pH 7.2). The topology of PfCRT in the oolemma is such that both the N- and C-terminus face the extracellular milieu[3],[22]. In the parasite, the N- and C-terminus face the lumen of the digestive vacuole. CQ uptake kinetics were performed by incubating oocytes in ND96 buffer adjusted to a pH of 4.5, 5.0, 5.5, or 6.0 and supplemented with 50 nM [^3H]CQ and one of 7 different CQ concentrations (10 µM, 50 µM, 100 µM, 200 µM, 300 µM, 400 µM, 500 µM CQ). The reaction was stopped at the 60 min time point, which is in the linear uptake range[22],[34] (Supplementary Fig. 17). For determination of the amount of drug uptake for each oocyte, the reaction medium was removed and the oocytes were washed three times with 2 ml of ice-cold ND96 buffer. Each oocyte was individually transferred to a scintillation vial containing 5% sodium dodecyl sulfate (200 μl) for lysis. The radioactivity of each sample was measured using a liquid scintillation analyzer Tri-Carb 4910 TR (PerkinElmer). Oocytes that were injected with water instead of RNA were analyzed in parallel, representing the uptake of a drug by diffusion and/or endogenous permeation pathways. The resulting value represents the “background“ level of drug accumulation in oocytes (in-depth discussion in[22]). […]

[2] = system: PfCRT variant E207G; experiment: CQ uptake assay, oocytes expressing E207G; assay type: cell-based, Plasmodium falciparum
Method: as §1, §2, §3

[3] = system: PfCRT variant E207V; experiment: CQ uptake assay, oocytes expressing E207V; assay type: cell-based, Plasmodium falciparum
Method: as §1, §2, §3

[4] = pKa values of the drugs (literature); assay type: physicochemical; conditions: between pH 4.5 and 6.0
[5] = D377A, 50 µM CQ, 1 h, mean ± SEM
[6] = E207G, 50 µM CQ, 1 h, mean ± SEM
[7] = pH 4.5, individual replicates, Fig 6b
[8] = pH 6.0, individual replicates, Fig 6b
[9] = ratio of activity pH 4.5 / pH 6.0
[10] = E207V, 50 µM CQ, 1 h, mean ± SEM

CCN(CC)CCCC(C)Nc1ccnc2cc(Cl)ccc12 (stereo not shown) [CQ, chloroquine]
Activity at pH 4.5 [1, 5]: 0.62 ± 0.01 pmol h-1 oocyte-1 | Activity at pH 6.0 [1, 5]: 1.44 ± 0.13 pmol h-1 oocyte-1 | R-value ([1]; D377A, CQ transport at pH 4.5 / pH 6.0): 0.44 ± 0.04 | D377A transport activity pH 4.5 ([1]; pH 4.5, single replicates, Fig 1d left): 0.64 pmol oocyte-1 h-1 and 0.61 pmol oocyte-1 h-1 | D377A R-value ([1]; pH 4.5 vs pH 6.0, Fig 1d left): 0.44 and 0.36 and 0.52 | D377A transport activity pH 6.0 ([1]; pH 6.0, single replicates, Fig 1d left): 1.44 pmol oocyte-1 h-1 and 1.71 pmol oocyte-1 h-1 and 1.17 pmol oocyte-1 h-1 | Activity at pH 4.5 [2, 6]: 2.26 ± 0.46 pmol h-1 oocyte-1 | Activity at pH 6.0 [2, 6]: 2.55 ± 0.15 pmol h-1 oocyte-1 | R-value ([2]; E207G, CQ transport at pH 4.5 / pH 6.0): 0.88 ± 0.06 | E207G transport activity pH 4.5 [2, 7]: 2.31 pmol oocyte-1 h-1 and 2.79 pmol oocyte-1 h-1 and 1.67 pmol oocyte-1 h-1 | E207G transport activity pH 6.0 [2, 8]: 2.70 pmol oocyte-1 h-1 and 2.76 pmol oocyte-1 h-1 and 2.19 pmol oocyte-1 h-1 | E207G R-value [2, 9]: 0.86 and 1.01 and 0.76 | Activity at pH 4.5 [3, 10]: 2.0 ± 0.13 pmol h-1 oocyte-1 | Activity at pH 6.0 [3, 10]: 2.09 ± 0.15 pmol h-1 oocyte-1 | R-value ([3]; E207V, CQ transport at pH 4.5 / pH 6.0): 0.96 ± 0.02 | E207V transport activity pH 4.5 [3, 7]: 2.33 pmol oocyte-1 h-1 and 1.85 pmol oocyte-1 h-1 and 1.83 pmol oocyte-1 h-1 | E207V transport activity pH 6.0 [3, 8]: 2.45 pmol oocyte-1 h-1 and 1.85 pmol oocyte-1 h-1 and 1.96 pmol oocyte-1 h-1 | E207V R-value [3, 9]: 0.95 and 1.00 and 0.93 | molecules being di-protonated [4]: > 99%
